Experimental data published in ChEMBL document CHEMBL1133185, “Inhibition of clinically relevant mutant variants of HIV-1 by quinazolinone non-nucleoside reverse transcriptase inhibitors” (J Med Chem, 2000).

How the values were obtained:
MT2 [1] = test: Antiviral activity against HIV-2 in MT-2 cells by yield assay; format: functional; conditions: Homo sapiens
[2] = system: Human immunodeficiency virus 1; test: Calculated Potency against Mutant HIV-1 sL100I; format: functional
[3] = system: Human immunodeficiency virus 1; test: Antiviral activity against Thai 9466, a wild-type clinical strain of HIV in PBMC by P24 assay; format: functional
[4] = system: Human immunodeficiency virus 1; test: Potency against Mutant HIV-1 K103N; format: functional
[5] = system: Human immunodeficiency virus 1; test: Plasma Potency against Mutant HIV-1 sV179D/L100I/Y181C; format: functional
[6] = system: Human immunodeficiency virus 1; test: Compound was evaluated for the inhibition of wide-type RF strain of HIV-1; format: functional
[7] = system: Human immunodeficiency virus 1; test: Plasma Potency against Mutant HIV-1 K103N; format: functional; conditions: Human immunodeficiency virus 1, Plasma
[8] = system: Human immunodeficiency virus 1; test: Potency against Mutant HIV-1 sV179D/L100I/Y181C; format: functional
[9] = system: Human immunodeficiency virus 1; test: Plasma Potency against Mutant HIV-1 sL100I; format: functional; conditions: Human immunodeficiency virus 1, Plasma
[10] = system: Human immunodeficiency virus 1; test: Calculated Potency against Mutant HIV-1 K103N; format: functional
Homo sapiens [11] = organism: Homo sapiens; test: percentage of the free compound in human serum; format: functional
[12] = system: Human immunodeficiency virus 1; test: Plasma antiviral activity was evaluated for RF strain of HIV-1; format: functional
Homo sapiens [13] = organism: Homo sapiens; test: percentage of the free compound in tissue culture medium; format: functional
MT2 [14] = test: Protein Binding was evaluated by PB shift in MT-2 by RNA assay; format: functional; conditions: Homo sapiens
MT2 [15] = test: Antiviral activity against RF strain of HIV in MT-2 cells by RNA assay; format: functional; conditions: Homo sapiens
[16] = system: Human immunodeficiency virus 1; test: Calculated Potency against Mutant HIV-1 sV179D/L100I/Y181C; format: functional
[17] = system: Human immunodeficiency virus 1; test: Antiviral activity against HIV-1 K103N mutant virus.; format: functional
[18] = system: Human immunodeficiency virus 1; test: Antiviral activity against A018C, Zidovudine resistant clinical strain of HIV in PBMC by P24 assay; format: functional
[19] = system: Human immunodeficiency virus 1; test: Potency against Mutant HIV-1 sL100I; format: functional
MT2 [20] = test: Antiviral activity against RF strain of HIV in MT-2 cells by yield assay; format: functional; conditions: Homo sapiens
[21] = system: Human immunodeficiency virus 1; test: Potency of second-generation NNRTIs against Mutant HIV-1 sV179D/L100I/Y181C free drug; format: functional
MT2 [22] = test: Antiviral activity of Protein Binding of compound was evaluated for RF virus expressed MT-2 by RNA; format: functional, Human immunodeficiency virus 1; conditions: Homo sapiens
[23] = system: Human immunodeficiency virus 1; test: Antiviral activity toward K103N mutant HIV-1 virus as protein binding adjusted (PB adj).; format: functional
[24] = system: Human immunodeficiency virus 1; test: Potency of second-generation NNRTIs against Mutant HIV-1 sV179D/L100I/Y181C; format: functional
Homo sapiens [25] = organism: Homo sapiens; test: percentage in human serum; value ranges from -0.2-0.5; format: functional
[26] = percentage in tissue culture medium
[27] = system: Human immunodeficiency virus 1; test: In vitro antiviral activity against HIV-1 (L100I).; format: functional
[28] = system: Human immunodeficiency virus 1; test: Potency of second-generation NNRTIs against Mutant HIV-1 K103N free drug; format: functional
MT2 [29] = test: Antiviral activity of Protein Binding of compound was evaluated for HIV-2 virus expressed MT-2 by yield; format: functional, Human immunodeficiency virus 2; conditions: Homo sapiens
[30] = system: Human immunodeficiency virus 1; test: Antiviral activity of Protein Binding of compound was evaluated for Thai 9466 virus expressed PBMC by P24; format: functional
[31] = system: Human immunodeficiency virus 1; test: Compound was evaluated for the inhibition of wilde-type RF strain of HIV-1; format: functional
[32] = system: Human immunodeficiency virus 1; test: Potency of second-generation NNRTIs against Mutant HIV-1 K103N; format: functional
[33] = system: Human immunodeficiency virus 1; test: Potency of second-generation NNRTIs against Mutant HIV-1 sL100I; format: functional
[34] = system: Human immunodeficiency virus 1; test: Potency of second-generation NNRTIs against Mutant HIV-1 sL100I free drug; format: functional
[35] = system: Human immunodeficiency virus 1; test: Antiviral activity of Protein Binding of compound was evaluated for A 018C virus expressed PBMC by P24; format: functional
[36] = system: Human immunodeficiency virus 1; test: Potency of second-generation NNRTIs against Mutant HIV-1 sL100I plasma; Value ranges from 6600-15700; format: functional
[37] = system: Human immunodeficiency virus 1; test: Potency of second-generation NNRTIs against Mutant HIV-1 sV179D/L100I/Y181C plasma; value ranges from 130000-309500; format: functional
MT2 [38] = test: Antiviral activity of Protein Binding of compound was evaluated for PB shift virus expressed MT-2 by RNA; format: functional, Human immunodeficiency virus 1; conditions: Homo sapiens
[39] = system: Human immunodeficiency virus 1; test: Potency of second-generation NNRTIs against Mutant HIV-1 K103N plasma; Vlaue ranges from 3400-8100; format: functional
MT2 [40] = test: Antiviral activity of Protein Binding of compound was evaluated for E virus expressed MT-2 by yield; format: functional, Human immunodeficiency virus 1; conditions: Homo sapiens
MT2 [41] = test: Antiviral activity of Protein Binding of compound was evaluated for RF virus expressed MT-2 by yield; format: functional, Human immunodeficiency virus 1; conditions: Homo sapiens
[42] = system: Human immunodeficiency virus 1; test: Compound was evaluated for antiviral activity against L100I mutant virus; format: functional
[43] = molecular target: Human immunodeficiency virus type 1 reverse transcriptase (Human immunodeficiency virus 1, UniProt Q72547); test: Inhibition of HIV-1 reverse transcriptase.
[44] = system: Human immunodeficiency virus 1; test: Antiviral activity was evaluated for the inhibition of wild-type RF strain of HIV-1 in an in vitro enzyme assay.; format: functional
[45] = system: Human immunodeficiency virus 1; test: The compound was evaluated for the effect of human plasma protein binding on antiviral efficacy; format: functional; conditions: Human immunodeficiency virus 1, Plasma
[46] = system: Human immunodeficiency virus 1; test: Compound was evaluated for the inhibition of human plasma protein binding adjusted (PB Adj) wild-type RF strain of HIV-1; format: functional; conditions: Human immunodeficiency virus 1, Plasma

`O=C1Nc2ccc(Cl)cc2[C@@](C#CC2CC2)(C(F)(F)F)N1` (stereo in doubt) gave an IC90 (MT2 [1]) greater than 2800 nM, an IC90 [2] of 4 nM and an IC90 [3] of 5 nM. For the same compound, the IC90 [4] was 10 nM, the IC90 [5] was 3.9 µM and the IC90 [6] was 2 nM. It also gave an IC90 [7] of 210 nM, an IC90 [8] of 190 nM and an IC90 [9] of 270 nM. For the same compound, the IC90 [10] was 3.1 nM, the Free (Homo sapiens [11]) was 1.5% and the IC90 [12] was 40 nM. For the same compound, the Free (Homo sapiens [13]) was 31%, the IC90 (MT2 [14]) was 17 nM and the IC90 (MT2 [15]) was 2 nM. It also gave an IC90 [16] of 59 nM, an IC90 [17] of 10 nM and an IC90 [18] of 2.5 nM. It also gave an IC90 [19] of 13 nM and an IC90 (MT2 [20]) of 2.7 nM.

Compound `O=C1Nc2ccc(Cl)cc2[C@@](C#CC2CC2)(C(F)(F)F)O1` [EFAVIRENZ] has an IC90 [21] of 650 nM, an IC90 (MT2 [22]) of 1.7 nM and an IC90 [23] of 1060 nM. For the same compound, the IC90 [24] was 2400 nM, the Free (Homo sapiens [25]) was 0.5% and the Free [26] was 27%. It also gave an IC90 [27] of 77 nM, an IC90 [28] of 17 nM and an IC90 (MT2 [29]) greater than 3000 nM. For the same compound, the IC90 [30] was 8.5 nM, the IC90 [31] was 1.7 nM and the IC90 [32] was 64 nM. It also gave an IC90 [33] of 120 nM, an IC90 [34] of 33 nM and an IC90 [35] of 2.8 nM. For the same compound, the IC90 [36] was 15.7 µM, the IC90 [37] was 310 µM and the IC90 (MT2 [38]) was 17 nM. The IC90 [39] was 8.1 µM, the IC90 ([17]; Human immunodeficiency virus 1) was 64 nM and the IC90 (MT2 [40]) was 2.8 nM. For the same compound, the IC90 (MT2 [41]) was 2.4 nM.

In the case of `CCC#C[C@]1(C(F)(F)F)NC(=O)Nc2ccc(F)c(F)c21`, the IC90 [23] is reported as 93 nM, the IC90 [42] is reported as 18 nM and the IC50 [43] is reported as 74 nM. It also gave an IC90 [44] of 1.5 nM, an IC90 [45] of 10 nM and an IC90 ([17]; Human immunodeficiency virus 1) of 14 nM.

With `O=C1Nc2ccc(F)c(Cl)c2[C@@](C#Cc2ccccn2)(C(F)(F)F)N1` the IC90 [23] was 1310 nM, the IC90 [42] was 44 nM and the IC50 [43] was 80 nM. It also gave an IC90 [44] of 2.3 nM, an IC90 [46] of 41 nM and an IC90 ([17]; Human immunodeficiency virus 1) of 73 nM.
